# Values quoted from earlier work in article PMC6838683, “Discovery of Human Signaling Systems: Pairing Peptides to G Protein-Coupled Receptors” (Cell, 2019).
# Read-outs that look alike come from different tables or passages of the source. Residues, ends and D or L forms follow the SMILES beside them. No end group written: not given here.
# Tested on: human GPCRs
# Parameters: method as in Guide to Pharmacology database
# Conditions: max reported value, ref Guide to Pharmacology database, cited from earlier work
# Description: Supplement mmc1.xlsx, sheet "HumanGPCRLigands" | column: pKi_value; pKd_value; pEC50_value; pIC50_value
# [1] = receptor CXCR2 (cxcr2_human, P25025)
# [2] = receptor grm2_human (GRM2, Q14416)
# [3] = receptor grm3_human (GRM3, Q14832)
# [4] = receptor grm7_human (GRM7, Q14831)
# [5] = receptor grm8_human (GRM8, O00222)
# [6] = receptor apj_human (APLNR, P35414)
# [7] = receptor bkrb1_human (BDKRB1, P46663)
# [8] = receptor RXFP1 (rxfp1_human, Q9HBX9)
# [9] = receptor RXFP2 (rxfp2_human, Q8WXD0)
# [10] = receptor RXFP3 (rl3r1_human, Q9NSD7)
# [11] = receptor pe2r4_human (PTGER4), Prostanoid receptors
# [12] = receptor UTS2R (ur2r_human, Q9UKP6)
# [13] = receptor OXER1 (oxer1_human, Q8TDS5)
# [14] = receptor fpr2_human (FPR2, P25090)
# [15] = receptor mrgx1_human (MRGPRX1), Class A orphans
# [16] = receptor S1PR1 (s1pr1_human, P21453)
# [17] = receptor S1PR2 (s1pr2_human, O95136)
# [18] = receptor S1PR3 (s1pr3_human, Q99500)
# [19] = receptor S1PR4 (s1pr4_human, O95977)
# [20] = receptor gpr63_human (GPR63), Class A orphans
# [21] = receptor nmur1_human (NMUR1, Q9HB89)
# [22] = receptor nmur2_human (NMUR2, Q9GZQ4)
molecule,measurement,setting,value
CC[C@H](C)[C@H](NC(=O)[C@H](CC(C)C)NC(=O)[C@@H](NC(=O)[C@@H](N)CCSC)[C@@H](C)O)C(=O)NCC(=O)N[C@@H](C)C(=O)N[C@@H](C)C(=O)N[C@@H](Cc1cnc[nH]1)C(=O)N[C@@H](CC(N)=O)C(=O)NCC(=O)N[C@@H](CO)C(=O)N[C@@H](C)C(=O)N[C@@H](CCC(N)=O)C(=O)N[C@@H](CC(C)C)C(=O)N[C@@H](CC(C)C)C(=O)N[C@@H](CCCN=C(N)N)C(=O)N[C@@H](CCC(N)=O)C(=O)N[C@@H](CC(C)C)C(=O)N[C@@H](CCCN=C(N)N)C(=O)NCC(=O)N[C@@H](CCC(N)=O)C(=O)N[C@@H](CC(C)C)C(=O)NCC(=O)N1CCC[C@H]1C(=O)N1CCC[C@H]1C(=O)NCC(=O)N[C@@H](CO)C(=O)N[C@@H](CCCN=C(N)N)C(N)=O [orexin-B] (H-MTLIGAAHNGSAQLLRQLRGQLGPPGSR-NH2),pEC50_value,"receptor HCRTR1 (ox1r_human, O43613)",9.2
same,pEC50_value,"receptor HCRTR2 (ox2r_human, O43614)",10
CXCL9,pKi_value,"receptor CXCR3 (cxcr3_human, P49682)",8.3
NC[C@H](O)c1ccc(O)c(O)c1 [(-)-noradrenaline],pKi_value,"receptor ada1a_human (ADRA1A, P35348)",6.4
same,pKi_value,"receptor ada1b_human (ADRA1B, P35368)",6.2
same,pKi_value,"receptor ada1d_human (ADRA1D, P25100)",7.4
same,pKi_value,"receptor ada2a_human (ADRA2A, P08913)",7.4
same,pKi_value,"receptor ada2b_human (ADRA2B, P18089)",6
same,pKi_value,"receptor ada2c_human (ADRA2C, P18825)",6.8
same,pKi_value,"receptor adrb1_human (ADRB1, P08588)",6
same,pKi_value,"receptor adrb2_human (ADRB2, P07550)",4.8
same,pKi_value,"receptor adrb3_human (ADRB3, P13945)",6.3
CXCL1,pKi_value,"receptor CXCR1 (cxcr1_human, P25024)",6.4
same,pKi_value,[1],9.7
N[C@@H](CCC(=O)O)C(=O)O [L-glutamic acid],pEC50_value,"receptor grm1_human (GRM1, Q13255)",5
same,pEC50_value,[2],5.4
same,pKi_value,[2],4.9
same,pEC50_value,[3],5.4
same,pKi_value,[3],7.4
same,pEC50_value,"receptor grm4_human (GRM4, Q14833)",5.5
same,pEC50_value,"receptor grm5_human (GRM5, P41594)",5.5
same,pEC50_value,"receptor grm6_human (GRM6, O15303)",5.2
same,pEC50_value,[4],3
same,pKi_value,[4],3.1
same,pEC50_value,[5],5.6
same,pIC50_value,[5],5.7
"apelin-36 (LVQPRGSRNGPGPWQGGRRKFRRQRPRLSHKGPMPF; not fully specified; UniProt Q9ULZ1 42-77, looked up)",pIC50_value,[6],8.6
glucagon-like peptide 1-(7-36) amide,pKi_value,"receptor glp1r_human (GLP1R, P43220)",9.2
NC(N)=NCCC[C@H](NC(=O)[C@H](Cc1ccccc1)NC(=O)[C@@H]1CCCN1C(=O)[C@H](CO)NC(=O)[C@H](Cc1ccccc1)NC(=O)CNC(=O)[C@@H]1CCCN1C(=O)[C@@H]1CCCN1C(=O)[C@@H](N)CCCN=C(N)N)C(=O)O [bradykinin] (H-RPPGFSPFR-OH),pKi_value,[7],4
same,pIC50_value,"receptor bkrb2_human (BDKRB2, P30411)",9.3
"kisspeptin-14 (DLPNYNWNSFGLRF; not fully specified; ends and bridges not checked; UniProt Q15726 108-121, looked up)",pKi_value,"receptor kissr_human (KISS1R, Q969F8)",8.8
relaxin,pEC50_value,[8],10.4
same,pKi_value,[8],10.2
same,pEC50_value,[9],9.1
same,pKi_value,[9],8.5
same,pEC50_value,[10],8.4
same,pKd_value,[10],10
CCCCC[C@H](O)/C=C/[C@H]1C(=O)C[C@H](O)[C@@H]1C/C=C\CCCC(=O)O [PGD2],pKi_value,"receptor PTGDR2 (pd2r2_human, Q9Y5Y4)",8.6
same,pKi_value,"receptor PTGDR (pd2r_human, Q13258)",9.2
same,pKi_value,"receptor PTGER1 (pe2r1_human, P34995)",4.7
same,pKi_value,"receptor pe2r2_human (PTGER2), Prostanoid receptors",5
same,pEC50_value,[11],8.8
same,pKi_value,[11],9
same,pKi_value,"receptor pf2r_human (PTGFR), Prostanoid receptors",7.7
CXCL5,pIC50_value,[1],9
CCCCC/C=C\C/C=C\C/C=C\C/C=C\CCCC(=O)OC(CO)CO [Peptide 2-arachidonoylglycerol],pKi_value,"receptor CNR2 (cnr2_human, P34972)",6.8
urotensin II-related peptide,pIC50_value,[12],8.6
same,pKd_value,[12],9.6
CCL7,pKi_value,"receptor CCR1 (ccr1_human, P32246)",8.1
same,pIC50_value,"receptor CCR2 (ccr2_human, P41597)",8.7
same,pKi_value,"receptor CCR3 (ccr3_human, P51677)",9.2
same,pKi_value,"receptor CCR5 (ccr5_human, P51681)",7.5
CCCCC/C=C\C/C=C\C/C=C\C=C\[C@H](CCCC(=O)O)OO [Peptide 5S-HPETE],pEC50_value,[13],7
CCCCC[C@H](O)/C=C/C=C\C=C\C=C\[C@@H](O)[C@@H](O)CCCC(=O)O [LXA4],pEC50_value,[14],12
same,pKd_value,[14],9.3
bovine adrenal medulla peptide 8-22,pEC50_value,[15],7.8
same,pKd_value,[15],8
same,pKi_value,[15],7.7
calcitonin,pEC50_value,"receptor calcr_human (CALCR, P30988), Calcitonin receptors",11.2
CCCCCCCCCCCCC/C=C/[C@@H](O)[C@@H](N)COP(=O)(O)O [sphingosine 1-phosphate],pEC50_value,[16],9.4
same,pKd_value,[16],9.4
same,pEC50_value,[17],8.5
same,pKd_value,[17],7.7
same,pEC50_value,[18],9.8
same,pKd_value,[18],9.6
same,pEC50_value,[19],8.1
same,pIC50_value,[19],7
same,pEC50_value,"receptor S1PR5 (s1pr5_human, Q9H228)",8.9
same,pEC50_value,"receptor gpr3_human (GPR3), Class A orphans",7.7
same,pEC50_value,"receptor gpr12_human (GPR12), Class A orphans",7
same,pEC50_value,[20],6.2
same,pEC50_value,"receptor p2y10_human (P2RY10), Class A orphans",7.3
CCCCC/C=C\C/C=C\C/C=C\C=C\[C@@H](O)CCCC(=O)O [Peptide 5S-HETE],pEC50_value,[13],7.2
CCCCCCCC/C=C\CCCCCCCC(=O)OC[C@H](COP(=O)(O)O)OC(=O)CCCCCCC/C=C\CCCCCCCC [dioleoylphosphatidic acid],pEC50_value,[20],6.3
neuromedin U-25 (FRVDEEFQSPFASQSRGYFLFRPRN-NH2),pEC50_value,[21],9.4
same,pKi_value,[21],9.5
same,pEC50_value,[22],9.4
same,pKi_value,[22],9.6
T-kinin (ISRPPGFSPFR),pKi_value,[7],5.2
angiotensin II (DRVYIHPF),pIC50_value,"receptor agtr1_human (AGTR1, P30556)",9.3
same,pKd_value,"receptor agtr2_human (AGTR2, P50052)",10.2
[Leu]enkephalin,pKi_value,"receptor OPRD1 (oprd_human, P41143)",8.7
same,pKi_value,"receptor OPRM1 (oprm_human, P35372)",8.1
apelin-17,pIC50_value,[6],9
CCK-4,pIC50_value,"receptor gasr_human (CCKBR, P32239)",7.5
C[C@@H](O)CC(=O)O [β-D-hydroxybutyric acid],pEC50_value,"receptor hcar2_human (HCAR2), Hydroxycarboxylic acid receptors",3.1
CCCCCCCCCCCCCCC[C@@H](O)[C@@H](N)COP(=O)(O)O [dihydrosphingosine 1-phosphate],pEC50_value,[20],6.2
